Data: ChEMBL document CHEMBL1201862, “PubChem BioAssay data set” (2004)
Activity calls are given as the source filed them.

What was measured:
[1] = Luminescence Cell-Based Dose Response HTS to Identify Activators of Luciferase Translation or Activity in H4 […] Cells. [Related pubchem assays: 1829 (Project Summary), 1814 (Primary HTS)]; type: functional
Protein RecA = target: T1, Protein RecA (Mycobacterium tuberculosis, UniProt P9WHJ3); assay: Fluorescence Cell-Free Homogeneous Dose Retest to Identify Inhibitors of RecA-Intein Splicing Activity. [Related pubchem assays (depositor defined):AID2097, AID2223, AID489010, AID492950]; type: functional
T1 sequence (P9WHJ3 whole entry): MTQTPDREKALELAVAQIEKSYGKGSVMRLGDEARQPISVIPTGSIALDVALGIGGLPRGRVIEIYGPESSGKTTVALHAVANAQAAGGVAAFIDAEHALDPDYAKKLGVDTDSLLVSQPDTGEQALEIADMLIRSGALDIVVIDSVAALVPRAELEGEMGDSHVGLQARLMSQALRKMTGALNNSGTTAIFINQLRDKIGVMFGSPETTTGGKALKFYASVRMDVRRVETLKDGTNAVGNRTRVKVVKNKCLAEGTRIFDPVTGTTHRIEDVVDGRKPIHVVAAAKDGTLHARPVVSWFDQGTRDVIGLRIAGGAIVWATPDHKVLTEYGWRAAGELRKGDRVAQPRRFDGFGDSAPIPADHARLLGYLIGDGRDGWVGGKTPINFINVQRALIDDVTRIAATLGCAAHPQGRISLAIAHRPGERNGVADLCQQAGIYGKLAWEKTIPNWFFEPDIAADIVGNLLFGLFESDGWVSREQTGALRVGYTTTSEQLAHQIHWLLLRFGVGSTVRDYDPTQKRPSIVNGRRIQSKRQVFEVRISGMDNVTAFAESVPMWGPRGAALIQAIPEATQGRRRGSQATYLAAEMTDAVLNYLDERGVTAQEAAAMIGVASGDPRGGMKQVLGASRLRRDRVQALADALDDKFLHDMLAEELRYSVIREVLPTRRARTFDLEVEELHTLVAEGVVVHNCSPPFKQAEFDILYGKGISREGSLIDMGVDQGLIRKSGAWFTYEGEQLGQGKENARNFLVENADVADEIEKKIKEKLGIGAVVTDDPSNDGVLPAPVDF

Vero [2] = assay: cells; type: functional; settings: Chlorocebus sabaeus
[3] = target: T2, Replicative DNA helicase DnaB (Mycobacterium tuberculosis, UniProt P9WMR3); assay: DnaB intein splicing inhibitors, dose response, biochemical, cell-free fluorescence (AID 449749); type: functional
T2 sequence (P9WMR3 whole entry): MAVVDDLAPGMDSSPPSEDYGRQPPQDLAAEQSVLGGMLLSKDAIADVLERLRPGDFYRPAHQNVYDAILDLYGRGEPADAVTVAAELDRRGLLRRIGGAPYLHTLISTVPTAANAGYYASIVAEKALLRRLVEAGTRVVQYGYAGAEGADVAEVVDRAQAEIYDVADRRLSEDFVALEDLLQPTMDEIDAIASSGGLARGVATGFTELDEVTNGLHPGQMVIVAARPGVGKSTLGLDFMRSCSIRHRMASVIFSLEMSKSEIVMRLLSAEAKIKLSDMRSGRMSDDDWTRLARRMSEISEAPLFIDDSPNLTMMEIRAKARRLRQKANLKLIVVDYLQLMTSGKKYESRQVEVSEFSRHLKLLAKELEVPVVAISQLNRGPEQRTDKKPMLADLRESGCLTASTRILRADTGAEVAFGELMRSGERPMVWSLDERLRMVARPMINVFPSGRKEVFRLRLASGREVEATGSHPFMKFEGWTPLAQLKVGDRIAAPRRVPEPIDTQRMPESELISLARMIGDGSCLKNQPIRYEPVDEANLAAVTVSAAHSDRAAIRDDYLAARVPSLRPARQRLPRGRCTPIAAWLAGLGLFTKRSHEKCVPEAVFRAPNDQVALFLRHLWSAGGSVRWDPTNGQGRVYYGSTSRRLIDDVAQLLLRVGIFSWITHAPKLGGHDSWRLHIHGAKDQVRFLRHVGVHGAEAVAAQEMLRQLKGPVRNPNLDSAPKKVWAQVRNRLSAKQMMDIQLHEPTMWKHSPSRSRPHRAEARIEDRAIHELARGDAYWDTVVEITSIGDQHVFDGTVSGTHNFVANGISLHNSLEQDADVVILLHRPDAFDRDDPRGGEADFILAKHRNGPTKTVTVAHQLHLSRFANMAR

H4 = assay: Luminescence Cell-Based Dose Response HTS to Identify Activators of 5'UTR Stem-Loop Driven Prion Protein mRNA Translation in H4 Neuroglioblastoma Cells. [Related pubchem assays: 1829 (Project Summary), 1814 (Primary HTS)]; type: functional; settings: Homo sapiens
[4] = A Cell-Based Counter Screen testing Compounds that Inhibit VEEV TC-83, in strain KU V3526.; type: functional
Vero [5] = assay: mammalian cell viability reduction – secondary assay, cytotoxicity control for West Nile virus antiviral project, dose response (AID 1650); type: functional; settings: Chlorocebus sabaeus
INS1 = assay: INS-1E survival protection against cytokine death – cell-based, luminescence, retest, dose response (AID 449756); type: functional; settings: Rattus norvegicus;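 further: cell death triggered by IL-1 beta plus TNF-alpha plus IFN-gamma mixture; protective hits raise ATP signal compared with cytokine alone wells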
Vero [6] = assay: cells; type: functional, cell-based; settings: Chlorocebus sabaeus
[7] = Luminescence Cell-Based Dose Retest to Confirm Inhibitors of Cancer Stem Cells. [Related pubchem assays (depositor defined):AID2717, AID2721]; type: functional; settings: Homo sapiens
[8] = A Cell-Based Confirmatory Screen for Compounds that Inhibit VEEV, TC-83 (2).; type: functional
[9] = target: T3, Sentrin-specific protease 8 (Homo sapiens, UniProt Q96LD8); assay: inhibition of human SENP8 cleavage activity – biochemical, luminescence, SAR follow-up (AID 504501); type: functional
T3 sequence (Q96LD8 whole entry): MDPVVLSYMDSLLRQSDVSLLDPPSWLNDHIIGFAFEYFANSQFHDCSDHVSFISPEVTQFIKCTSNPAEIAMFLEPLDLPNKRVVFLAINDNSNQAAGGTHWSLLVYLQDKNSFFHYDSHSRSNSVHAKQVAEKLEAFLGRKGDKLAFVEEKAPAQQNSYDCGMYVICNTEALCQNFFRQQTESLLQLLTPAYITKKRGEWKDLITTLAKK

Nonstructural protein 1 = Nonstructural protein 1 (Influenza A virus, UniProt Q194T2); type: functional, Influenza A virus (A/California/07/2009(H1N1))
Nonstructural protein 1, sequence (Q194T2 whole entry): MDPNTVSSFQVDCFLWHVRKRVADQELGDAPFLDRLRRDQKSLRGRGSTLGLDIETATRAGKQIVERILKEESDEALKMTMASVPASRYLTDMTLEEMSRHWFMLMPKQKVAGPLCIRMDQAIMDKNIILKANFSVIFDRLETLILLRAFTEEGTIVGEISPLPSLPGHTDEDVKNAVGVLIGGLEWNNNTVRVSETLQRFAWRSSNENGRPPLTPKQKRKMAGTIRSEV

Caspase-3 [10] = target: T4, Caspase-3 (Homo sapiens, UniProt P42574); type: functional
T4 sequence (P42574 whole entry): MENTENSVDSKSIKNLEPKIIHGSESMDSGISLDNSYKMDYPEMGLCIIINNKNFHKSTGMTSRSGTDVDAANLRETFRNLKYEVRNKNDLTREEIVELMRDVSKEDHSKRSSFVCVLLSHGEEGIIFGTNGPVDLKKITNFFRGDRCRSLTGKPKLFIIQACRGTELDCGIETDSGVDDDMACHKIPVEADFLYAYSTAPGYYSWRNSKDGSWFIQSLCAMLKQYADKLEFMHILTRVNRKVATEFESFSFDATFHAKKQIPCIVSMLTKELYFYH

[11] = target: T3, Sentrin-specific protease 8; type: functional
[12] = target: T5, Sentrin-specific protease 7 (Homo sapiens, UniProt Q9BQF6); type: functional;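 further: Luminescence-based dose-response confirmation of ultra-high-throughput screening hits, measuring inhibition of SENP7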
T5 sequence (Q9BQF6 whole entry): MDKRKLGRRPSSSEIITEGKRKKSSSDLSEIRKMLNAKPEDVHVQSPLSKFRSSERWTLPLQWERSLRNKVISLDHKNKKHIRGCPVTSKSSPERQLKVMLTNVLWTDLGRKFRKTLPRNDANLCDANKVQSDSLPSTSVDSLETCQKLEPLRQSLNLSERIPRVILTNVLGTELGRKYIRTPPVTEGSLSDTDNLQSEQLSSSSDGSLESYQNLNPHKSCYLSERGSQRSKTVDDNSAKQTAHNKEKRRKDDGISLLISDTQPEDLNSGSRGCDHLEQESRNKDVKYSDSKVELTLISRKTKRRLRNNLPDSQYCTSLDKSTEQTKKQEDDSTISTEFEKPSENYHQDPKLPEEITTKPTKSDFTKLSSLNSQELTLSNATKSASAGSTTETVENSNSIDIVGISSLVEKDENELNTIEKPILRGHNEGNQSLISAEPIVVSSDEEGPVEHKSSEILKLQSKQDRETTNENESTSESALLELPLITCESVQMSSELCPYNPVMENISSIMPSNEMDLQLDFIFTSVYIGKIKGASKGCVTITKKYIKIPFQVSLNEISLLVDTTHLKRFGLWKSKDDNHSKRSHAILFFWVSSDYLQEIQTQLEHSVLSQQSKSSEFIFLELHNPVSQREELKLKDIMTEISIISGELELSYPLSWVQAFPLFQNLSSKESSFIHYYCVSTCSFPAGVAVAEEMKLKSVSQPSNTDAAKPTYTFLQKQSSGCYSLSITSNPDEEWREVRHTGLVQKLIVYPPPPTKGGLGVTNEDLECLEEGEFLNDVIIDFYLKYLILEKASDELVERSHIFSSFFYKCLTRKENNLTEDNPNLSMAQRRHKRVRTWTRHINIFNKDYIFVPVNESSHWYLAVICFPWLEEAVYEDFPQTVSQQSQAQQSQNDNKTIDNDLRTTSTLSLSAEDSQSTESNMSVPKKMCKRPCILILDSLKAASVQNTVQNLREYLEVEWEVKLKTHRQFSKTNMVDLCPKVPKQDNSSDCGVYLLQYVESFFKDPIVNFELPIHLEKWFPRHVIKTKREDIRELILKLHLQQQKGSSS

[13] = target: Oxysterols receptor LXR-beta (Homo sapiens, UniProt P55055); type: functional, cell-based;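 further: Cell-based luminescence dose-response assay of agonist activity at LXR, run as a confirmatory counterscreen to a daf-12 agonist screen; HEK293 cells with Gal4-LXR fusion and GAL4-driven luciferase reporter; agonist potency from rising luciferase signal of a Gal4-LXR reporter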
Oxysterols receptor LXR-beta, sequence (P55055 whole entry, the tested form may be a part): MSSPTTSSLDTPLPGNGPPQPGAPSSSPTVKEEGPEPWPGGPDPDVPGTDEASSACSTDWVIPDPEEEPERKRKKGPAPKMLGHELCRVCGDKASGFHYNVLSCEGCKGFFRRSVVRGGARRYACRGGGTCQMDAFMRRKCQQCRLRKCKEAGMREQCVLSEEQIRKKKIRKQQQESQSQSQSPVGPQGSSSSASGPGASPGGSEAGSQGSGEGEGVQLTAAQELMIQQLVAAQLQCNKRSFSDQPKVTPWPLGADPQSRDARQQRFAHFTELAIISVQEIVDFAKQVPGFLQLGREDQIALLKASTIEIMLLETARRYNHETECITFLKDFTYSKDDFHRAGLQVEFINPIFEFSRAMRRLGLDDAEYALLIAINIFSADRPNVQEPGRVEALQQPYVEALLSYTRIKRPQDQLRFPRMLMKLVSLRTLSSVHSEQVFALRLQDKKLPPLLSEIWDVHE

[14] = target: T6, Sentrin-specific protease 6 (Homo sapiens, UniProt Q9GZR1); type: functional
T6 sequence (Q9GZR1 whole entry): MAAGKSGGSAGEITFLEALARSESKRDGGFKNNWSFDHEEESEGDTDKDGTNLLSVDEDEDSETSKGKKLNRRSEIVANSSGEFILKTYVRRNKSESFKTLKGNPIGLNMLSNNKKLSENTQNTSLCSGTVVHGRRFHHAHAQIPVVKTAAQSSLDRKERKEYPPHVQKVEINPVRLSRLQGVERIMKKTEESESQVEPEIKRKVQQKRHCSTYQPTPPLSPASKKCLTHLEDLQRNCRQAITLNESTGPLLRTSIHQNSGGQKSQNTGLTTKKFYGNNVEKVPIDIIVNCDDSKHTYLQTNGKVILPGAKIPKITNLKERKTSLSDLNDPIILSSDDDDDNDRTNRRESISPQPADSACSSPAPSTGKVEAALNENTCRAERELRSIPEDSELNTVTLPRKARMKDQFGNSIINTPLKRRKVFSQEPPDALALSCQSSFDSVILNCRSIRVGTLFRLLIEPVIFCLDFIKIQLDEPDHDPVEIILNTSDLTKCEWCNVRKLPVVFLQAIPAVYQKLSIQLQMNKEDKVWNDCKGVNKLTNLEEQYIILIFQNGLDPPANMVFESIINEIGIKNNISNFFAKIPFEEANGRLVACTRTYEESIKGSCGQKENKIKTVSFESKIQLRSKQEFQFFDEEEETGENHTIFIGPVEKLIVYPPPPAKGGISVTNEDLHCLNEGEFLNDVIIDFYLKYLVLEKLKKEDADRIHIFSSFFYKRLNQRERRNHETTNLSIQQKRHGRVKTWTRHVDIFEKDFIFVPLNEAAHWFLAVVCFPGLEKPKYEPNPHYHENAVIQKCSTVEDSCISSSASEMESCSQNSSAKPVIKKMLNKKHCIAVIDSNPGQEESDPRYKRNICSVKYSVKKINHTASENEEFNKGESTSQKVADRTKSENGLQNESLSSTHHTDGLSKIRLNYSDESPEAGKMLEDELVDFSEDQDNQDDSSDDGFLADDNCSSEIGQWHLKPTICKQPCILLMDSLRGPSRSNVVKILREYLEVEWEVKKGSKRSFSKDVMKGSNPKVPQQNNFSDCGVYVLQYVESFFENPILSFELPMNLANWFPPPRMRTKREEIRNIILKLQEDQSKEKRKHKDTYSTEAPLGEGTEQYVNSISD

Caspase-3 [15] = target: T4, Caspase-3; assay: SAR Analysis of small molecule inhibitors of Sentrin-specific proteases (SENPs) using a Caspase-3 Selectivity assay. [Related pubchem assays (depositor defined):AID2540, AID2599, AID434973, AID489001]; type: functional
[16] = target: T6, Sentrin-specific protease 6; assay: SAR Analysis of small molecule inhibitors of Sentrin-specific protease 6 (SENP6) using a Luminescent assay. [Related pubchem assays (depositor defined):AID2582, AID2599]; type: functional
[17] = target: T5, Sentrin-specific protease 7; assay: inhibition of human SENP7 cleavage activity – biochemical, luminescence, SAR follow-up (AID 504497); type: functional
Cytochrome P450 2D6 = Cytochrome P450 2D6 (Homo sapiens, UniProt P10635);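 further: CYP2D6 member of a cytochrome P450 panel assay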
Cytochrome P450 2D6, sequence (P10635 whole entry): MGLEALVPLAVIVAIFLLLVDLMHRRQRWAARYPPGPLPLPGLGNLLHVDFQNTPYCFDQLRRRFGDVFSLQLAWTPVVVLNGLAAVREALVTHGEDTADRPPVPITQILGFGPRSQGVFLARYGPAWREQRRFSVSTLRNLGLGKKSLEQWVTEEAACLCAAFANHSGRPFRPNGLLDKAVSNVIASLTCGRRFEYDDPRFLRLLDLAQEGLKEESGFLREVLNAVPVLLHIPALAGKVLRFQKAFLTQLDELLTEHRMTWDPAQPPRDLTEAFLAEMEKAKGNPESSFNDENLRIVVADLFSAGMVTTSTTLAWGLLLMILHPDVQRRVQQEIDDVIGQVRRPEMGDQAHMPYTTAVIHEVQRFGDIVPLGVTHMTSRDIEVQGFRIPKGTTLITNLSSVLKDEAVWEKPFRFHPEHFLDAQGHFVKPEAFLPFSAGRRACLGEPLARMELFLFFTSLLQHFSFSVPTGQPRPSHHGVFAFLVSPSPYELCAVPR

With `Clc1ccc2nnnc(-c3ccccc3)c2c1` the EC50 [1] was 2.12 µM (active), the EC50 (Protein RecA) was 3.78 µM (active) and the CC50 (Vero [2]) was > 25 µM (active). The AC50 [3] was 24.8 µM (active), the EC50 (H4) was > 120 µM (not active) and the IC50 [4] was 3.45 µM (active). For the same molecule, the CC50 (Vero [5]) was 12.3 µM (active), the AC50 (INS1) was 7.81 µM (active) and the IC50 (Vero [6]) was 9.71 µM (active). For the same molecule, the AC50 [7] was 3.08 µM (active) and the IC50 [8] was 6.12 µM (active).

With `O=[N+]([O-])c1ccccc1N/N=C/c1c[nH]c2ccccc12` the IC50 [9] was 6.32 µM (active), the IC50 (Nonstructural protein 1) was 19 µM (active) and the IC50 (Caspase-3 [10]) was 32.8 µM (active). The IC50 [11] was > 100 µM (inactive), the IC50 [12] was 3.36 µM (active) and the EC50 [13] was > 67.5 µM (inactive). The IC50 [14] was > 100 µM (inactive), the IC50 (Caspase-3 [15]) was 17.4 µM (active) and the IC50 [16] was 5.73 µM (active). For the same molecule, the IC50 [17] was 2.26 µM (active), the EC50 (cells) was > 67.5 µM (inactive) and the AC50 (Cytochrome P450 2D6) was 20 µM (inconclusive).
